Experimental data taken from EP4548971A1, “1,4-BENZOTHIAZEPINES AND RELATED COMPOUNDS WITH CYCLOPROPANOL GROUPS AS MULTI-TARGETED DRUGS” (Georg-August-Universität Göttingen Stiftung Öffentlichen …, priority 2023, dated 2025).

Legend:
[1] = Membrane permeability, PermeaPad plate (cell-free transport model); type: in vitro ADME; settings: for Pe: permeability rate, room temperature, 24 hours
Method: Membrane permeability was assessed using PermeaPad® Plate according to the manufacturing procedure (innoME GmbH, Espelkamp, Germany). Briefly, 200 µl water was added into acceptor plate. 200 µl of 100 - 500 µM test compound in water was added directly to the well membranes of the donor plate. The donor plate contains a biomimetic membrane for simulating passive mass transfer through different barriers in the body. Then the donor plate was placed into the acceptor plate wells and incubated at room temperature for 24 hours in dark. To determine peak absorbance of test compounds, absorbance spectra of acceptor solutions and initial solutions for each test compound were read out. The Permeability Rate (Pe) was calculated using the formula: Pe = C × −ln(1−(ODA)/(ODE)) cm/s, [formula]
where ODA is the absorbance of acceptor solution, ODE is the absorbance of the standard solution; if the compound is able to permeabilize the membrane and fully reach equilibrium, 250 µM will be the final concentration of solution in the donor and acceptor wells. The coefficient C was calculated using the formula: C = (VD × VA)/((VD+VA) × Area × time), [formula] where VA - acceptor volume (cm^3), VD - donor volume (cm^3), membrane area 0.24 cm^2, time is 86,400 s.
The membrane permeability of the derivatives was determined using cell-free transport models (PermeaPad®, innoME GmbH), and permeability rates (Pe), which are a measure of how fast a compound can cross a membrane, were established (Table 1).

SERCA2a = molecular target: T1, SERCA2a (Mus musculus, UniProt O55143); assay: NADH-coupled ATPase assay on microsomal membrane vesicles from mouse heart ventricles (mouse SR); type: biochemical; parameters: key to SERCA2a mouse SR effect class: +++: a strong effect, comparable to or greater than that of a known compounds at a given concentration (25 µM in RyR2 R-CEPIA1er assay, 10 µM in caffeine assay and on microsomal membrane vesicles); ++: moderate effect; +: observable effect; -: no effect; settings: for SERCA2a mouse SR effect class: 10 µM on microsomal membrane vesicles
T1 construct: host or cells: HL-1 cardiac cells
T1 sequence (O55143 1-998 isoform O55143-2): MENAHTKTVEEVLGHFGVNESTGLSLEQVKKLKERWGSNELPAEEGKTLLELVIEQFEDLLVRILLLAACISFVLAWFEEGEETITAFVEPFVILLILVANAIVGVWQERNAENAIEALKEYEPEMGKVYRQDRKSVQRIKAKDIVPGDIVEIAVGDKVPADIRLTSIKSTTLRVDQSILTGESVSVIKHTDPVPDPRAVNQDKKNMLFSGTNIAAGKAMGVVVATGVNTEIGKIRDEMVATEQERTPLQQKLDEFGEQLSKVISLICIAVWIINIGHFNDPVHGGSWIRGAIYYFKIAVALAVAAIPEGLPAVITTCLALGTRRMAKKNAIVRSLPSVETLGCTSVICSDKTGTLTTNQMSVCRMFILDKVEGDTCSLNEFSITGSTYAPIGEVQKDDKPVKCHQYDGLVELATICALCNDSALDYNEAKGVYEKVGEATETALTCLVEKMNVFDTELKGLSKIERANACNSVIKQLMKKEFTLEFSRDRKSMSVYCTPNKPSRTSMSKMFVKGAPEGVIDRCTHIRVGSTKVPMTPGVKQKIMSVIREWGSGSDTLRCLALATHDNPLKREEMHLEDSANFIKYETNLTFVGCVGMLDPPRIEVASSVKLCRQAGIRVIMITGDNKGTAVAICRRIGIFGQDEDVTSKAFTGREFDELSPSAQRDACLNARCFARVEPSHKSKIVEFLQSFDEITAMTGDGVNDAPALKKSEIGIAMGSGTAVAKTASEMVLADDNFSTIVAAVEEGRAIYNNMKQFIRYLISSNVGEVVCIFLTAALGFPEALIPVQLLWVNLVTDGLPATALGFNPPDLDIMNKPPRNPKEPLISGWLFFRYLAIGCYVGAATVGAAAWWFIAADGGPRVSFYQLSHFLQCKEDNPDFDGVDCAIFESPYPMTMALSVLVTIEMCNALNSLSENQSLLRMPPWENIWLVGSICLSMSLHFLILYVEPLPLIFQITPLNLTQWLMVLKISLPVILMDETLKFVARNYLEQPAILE
Method: All animal procedures were performed in accordance with Directive 2010/63/EU of the European Parliament and the Council on the protection of animals used in research, as well as Animal Welfare Law of the Federal Republic of Germany (Tierschutzgesetz der Bundesrepublik Deutschland, TierSchG). […] All mice were housed with a 12 hours light/dark cycle with free access to food and water. Adult C57BL/6N mice of both genders were sedated with isoflurane in a sealed container and quickly euthanized by cervical dislocation. Heart ventricles were taken out instantly, washed with ice cold PBS plus complete, cut into smaller pieces and snap frozen in liquid nitrogen straight away.
Thawed on ice lysis buffer (10mM EDTA, 10mM HEPES, cOmplete, pH 7.4) was added and the ventricles were homogenized with a Qiagen cellruptor for 20 s. On ice an equal volume of restoration buffer (500 mM sucrose, 10 mM HEPES, cOmplete, pH7.2) was added and briefly mixed. The homogenate was centrifuged at 10000 × g for 20 min at 4° C. The supernatant was collected and centrifuged again for another hour (100000 × g at 4°C). Then the pellet was carefully resuspended in resuspension buffer (250 mM sucrose, 10 mM HEPES, cOmplete, pH 7.2) on ice by pipetting the solution up and down until fully dissolved. The obtained solution was diluted to a protein concentration of 5 µg/µl with the resuspension buffer and the aliquots were snap frozen in liquid nitrogen and then stored at -80 °C until usage.
To determine whether new compounds could increase the SERCA2a activity, HEK-293 microsomes (40 - 150 µg of total protein) or mouse ventricular microsomes (1 - 20 µg of total protein) were diluted in 100 µl of the assay buffer used for measurement of SERCA activity (described below) and incubated at room temperature for 5 minutes prior to the experiments. The measurements of SERCA2a activity were made at 28 °C by using a NADH -coupled ATPase assay. Briefly, the assay buffer contained 60 mM MOPS, 120 mM KCI, 6 mM MgCl2, 1 mM EGTA, 5 mM NaN3, 0.5 mM phosphoenolpyruvate and 1.5 mM CaCl2, pH 7.0. Before the reaction was started by the injection of […] ATP (resulting in 2 mM final concentration in the well), 5 units/mL of both lactate dehydrogenase and pyruvate kinase, 0.5 mM NADH, and 1 µM Ca^2+ ionophore A-23187 (Sigma, C-7522) were added to the diluted sample with or without the tested compound. The 1.5 mM Ca/EGTA buffer has a free Ca^2+ concentration of about 200 µM. The NADH fluorescence decrease was recorded each 2 s for 10 min course on a multiwell plate reader TECAN Spark 20M in 96-well glass bottom plates (MatTek Corporation; Cat. No. PBK96G-1.5-5-F). Fluorescence was evoked by 380 nm excitation wavelength and collected in a bottom-read mode at 425 nm. Exposure - 30 flashes, excitation bandwidth - 10 nm, emission bandwidth - 10 nm. ATP was injected at 30 s. […] The data were analyzed with computer software GraphPad Prism version 8.3.1 (GraphPad Software, Inc.). The difference in signal decrease with and without microsomes was taken as an indicator for the additional ATPase activity performed by SERCA2a. The obtained values for maximal SERCA2a activity were normalized for total protein concentration. Maximal SERCA2a activity values are reported as percentages of control (0.1% DMSO) values. Microsomal samples that were kept on ice until usage and set to 100%.
In an NADH assay, the change in NADH coenzyme fluorescence reflects the level of the consumption of ATP, which can be taken as an indicator of SERCA2 activity [G. B. Warren, P. A. Toon, N. J. Birdsall, A. G. Lee, J. C. Metcalfe, Reconstitution of a calcium pump using defined membrane components. Proc. Natl. Acad. Sci. U.S.A. 1974, 71, 622 - 626]. ATP hydrolysis by SERCA2 is required to pump calcium ions into the SER. A higher rate of ATP hydrolysis corresponds to enhanced SERCA2 ATPase activity that leads to a greater pumping of calcium ions into the SR. […]

Structure (SMILES) | Pe rating in words (low / medium / high; poor) [1] | Pe [1] | SERCA2a mouse SR effect class (SERCA2a) | EC50 (SERCA2a; ATPase activity, range after the semicolon is not explained) | effect on ATPase activity, in words (SERCA2a; cardiac SER vesicles from mouse heart, 10 µM (3 µM for 14b), vs. 0.1 v/v% DMSO)
COc1ccc2c(c1)CN(C(=O)C(=O)O)CCS2 [Compound S36, reference compound] | poor permeability and low | 1.0 10^-6 cm/s |  |  | 
COc1ccc2c(c1)CN(Cc1ccc(C(=O)O)cc1)CCS2 [ARM210, reference compound] | high | 6.8 10^-6 cm/s | ++ |  | 
COc1ccc2c(c1)CN(CCCCN(CCCCC1(O)CC1)CCCCC1(O)CC1)CCS2 [Compound 14a, 1,1'-(((4-(7-Methoxy-2,3-dihydrobenzo[1,4-f]thiazepin-4(5H)-yl)butyl)azanediyl)bis(butane-4,1-diyl))bis(cyclopropan-1-ol)] | poor permeability and low | 0.6 10^-6 cm/s | +++ | 383 nM | 
COc1ccc(OCCCNCCCCC2(O)CC2)cc1 [Compound 13b, 1-(4-((3-(4-methoxyphenoxy)propyl)amino)butyl)cyclopropan-1-ol] | high | 4.0 10^-6 cm/s | + |  | 
COc1ccc(SCCCNCCCCC2(O)CC2)cc1 [Compound 13c, 1-(4-((3-((4-Methoxyphenyl)thio)propyl)amino)butyl)cyclopropan-1-ol] | high | 6.9 10^-6 cm/s | +++ |  | 
COc1ccc(SCCCN(CCCCC2(O)CC2)CCCCC2(O)CC2)cc1 [Compound 14c, 1,1'-(((3-((4-Methoxyphenyl)thio)propyl)azanediyl)bis(butane-4,1-diyl))bis(cyclopropan-1-ol)] | high | 3.6 10^-6 cm/s | + |  | 
COc1ccc2c(c1)CN(CCCCC1(O)CC1)CCS2 [Compound 13d, 1-(4-(7-methoxy-2,3-dihydrobenzo[1,4-f]thiazepin-4(5H)-yl)butyl)cyclopropan-1-ol] | high | 3.6 10^-6 cm/s | ++ |  | moderate
COc1ccc2c(c1)CN(CCCCNCCCCC1(O)CC1)CCS2 [Compound 13a, 1-(4-((4-(7-Methoxy-2,3-dihydrobenzo[1,4-f]-thiazepin-4(5H)-yl)butyl)amino)butyl)cyclopropan-1-ol] | poor permeability and low | 0.8 10^-6 cm/s | + |  | 
